Earlier results, collected in article PMC13064256, “Integrative preclinical strategy for pharmacokinetic profiling and candidate selection of 3-hydroxypropanamidines: a promising antimalarial class” (Malaria Journal, 2026).

Parameters: method as in PMID 31898492

CCCCN(CCCC)CCC(O)c1cc2c(Cl)cc(Cl)cc2c2cc(C(F)(F)F)ccc12 (stereo not shown) [halofantrine]
Clint in HLMs: 26.9 µL/min/mg
